# From BindingDB's records for doi:10.1021/jm501892g (Ensemble Therapeutics, 2015)
# Tests used:
# [1] = target: Baculoviral IAP repeat-containing protein 2 (cIAP1, BIRC2, Homo sapiens) (UniProt Q13490); assay: Inhibition of cIAP1 BIR3 (154 to 352 residues) (unknown origin) by fluoresceinated dimeric SMAC peptide based fluorescence polarization assay
# [2] = target: E3 ubiquitin-protein ligase XIAP (BIRC4, Homo sapiens) (UniProt P98170); assay: Inhibition of XIAP BIR2-3 (125 to 356 residues) C202A/C213G mutant (unknown origin) fluoresceinated dimeric SMAC peptide based fluorescence polarization assay
# E3 ubiquitin-protein ligase XIAP (BIRC4, Homo sapiens), sequence (P98170 whole entry, looked up, the tested form may be a part): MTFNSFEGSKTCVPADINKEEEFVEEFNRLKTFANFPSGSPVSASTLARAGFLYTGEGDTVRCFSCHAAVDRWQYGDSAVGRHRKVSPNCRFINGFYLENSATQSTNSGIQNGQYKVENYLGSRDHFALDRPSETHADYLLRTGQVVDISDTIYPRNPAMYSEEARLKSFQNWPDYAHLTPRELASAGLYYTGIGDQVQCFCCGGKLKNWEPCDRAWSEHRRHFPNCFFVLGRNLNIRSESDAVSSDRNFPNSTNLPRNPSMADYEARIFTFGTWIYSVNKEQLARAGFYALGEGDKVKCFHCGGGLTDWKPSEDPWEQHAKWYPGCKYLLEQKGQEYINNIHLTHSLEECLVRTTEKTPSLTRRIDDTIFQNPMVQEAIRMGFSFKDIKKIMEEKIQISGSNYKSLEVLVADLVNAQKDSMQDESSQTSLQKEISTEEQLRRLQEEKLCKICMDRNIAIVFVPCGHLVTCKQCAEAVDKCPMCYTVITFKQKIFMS
# Baculoviral IAP repeat-containing protein 2 (cIAP1, BIRC2, Homo sapiens), sequence (Q13490 whole entry, looked up, the tested form may be a part): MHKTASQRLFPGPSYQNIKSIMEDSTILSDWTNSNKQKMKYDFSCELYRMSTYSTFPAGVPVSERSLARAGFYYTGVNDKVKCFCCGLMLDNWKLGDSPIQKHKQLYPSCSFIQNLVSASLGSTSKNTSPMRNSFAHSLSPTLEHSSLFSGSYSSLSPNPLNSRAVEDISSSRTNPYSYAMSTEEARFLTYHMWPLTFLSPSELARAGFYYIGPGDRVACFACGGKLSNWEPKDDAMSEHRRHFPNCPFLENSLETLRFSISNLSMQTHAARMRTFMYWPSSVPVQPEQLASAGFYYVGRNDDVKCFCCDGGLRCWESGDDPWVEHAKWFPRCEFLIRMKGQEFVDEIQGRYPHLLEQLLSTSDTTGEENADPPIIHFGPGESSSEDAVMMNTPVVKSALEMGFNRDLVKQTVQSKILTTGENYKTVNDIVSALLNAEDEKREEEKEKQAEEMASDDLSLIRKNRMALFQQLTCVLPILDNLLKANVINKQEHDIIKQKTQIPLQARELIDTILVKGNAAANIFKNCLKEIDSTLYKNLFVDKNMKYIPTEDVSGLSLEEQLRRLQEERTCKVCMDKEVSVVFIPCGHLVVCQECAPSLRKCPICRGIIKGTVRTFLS
Compound,IC50 [1],EC50 [1],IC50 [2]
CN[C@@H](C)C(=O)N[C@H](C(=O)N1C[C@@H]2C[C@H]1C(=O)N[C@@H](Cc1ccccc1)C(=O)N[C@H](C(=O)O)Cc1ccc(cc1)NC(=O)CCc1cn(nn1)[C@H]1C[C@@H](C(=O)N[C@@H](Cc3ccccc3)C(=O)N[C@H](C(=O)O)Cc3ccc(cc3)NC(=O)CCc3cn2nn3)N(C(=O)[C@@H](NC(=O)[C@H](C)NC)C(C)C)C1)C(C)C,8 nM,,
CN[C@@H](C)C(=O)N[C@H](C(=O)N1C[C@@H]2C[C@H]1C(=O)N[C@@H](Cc1ccccc1)C(=O)N[C@H](C(=O)O)Cc1ccc(cc1)OCc1cn(nn1)[C@H]1C[C@@H](C(=O)N[C@@H](Cc3ccccc3)C(=O)N[C@H](C(=O)O)Cc3ccc(cc3)OCc3cn2nn3)N(C(=O)[C@@H](NC(=O)[C@H](C)NC)C(C)C)C1)C(C)C,11 nM,,
CN[C@@H](C)C(=O)N[C@H](C(=O)N1C[C@@H]2C[C@H]1C(=O)N[C@@H](Cc1ccc3ccccc3c1)C(=O)N[C@H](C(=O)O)Cc1cn(nn1)[C@H]1C[C@@H](C(=O)N[C@@H](Cc3ccc4ccccc4c3)C(=O)N[C@H](C(=O)O)Cc3cn2nn3)N(C(=O)[C@@H](NC(=O)[C@H](C)NC)C(C)C)C1)C(C)C,10 nM,,9 nM
CN[C@@H](C)C(=O)N[C@H](C(=O)N1C[C@@H]2C[C@H]1C(=O)N[C@@H](Cc1cccc3ccccc13)C(=O)N[C@H](C(=O)O)Cc1ccc(cc1)OCc1cn(nn1)[C@H]1C[C@@H](C(=O)N[C@@H](Cc3cccc4ccccc34)C(=O)N[C@H](C(=O)O)Cc3ccc(cc3)OCc3cn2nn3)N(C(=O)[C@@H](NC(=O)[C@H](C)NC)C(C)C)C1)C(C)C,17 nM,,

# Other lines, results leading:
IC50 [1],EC50 [1],IC50 [2],Compound
,36 nM,,CN[C@@H](C)C(=O)N[C@H](C(=O)N1C[C@@H]2C[C@H]1C(=O)N[C@@H](Cc1ccccc1)C(=O)N[C@H](C(=O)O)Cc1ccc(cc1)NC(=O)CCc1cn2nn1)C(C)C
17 nM,,,CN[C@@H](C)C(=O)N[C@H](C(=O)N1C[C@@H]2C[C@H]1C(=O)N[C@@H](Cc1ccc3ccccc3c1)C(=O)N[C@H](C(=O)O)Cc1ccc(cc1)OCc1cn(nn1)[C@H]1C[C@@H](C(=O)N[C@@H](Cc3ccc4ccccc4c3)C(=O)N[C@H](C(=O)O)Cc3ccc(cc3)OCc3cn2nn3)N(C(=O)[C@@H](NC(=O)[C@H](C)NC)C(C)C)C1)C(C)C
,20 nM,,CN[C@@H](C)C(=O)N[C@H](C(=O)N1C[C@@H]2C[C@H]1C(=O)N[C@@H](Cc1ccccc1)C(=O)N[C@H](C(=O)O)Cc1ccc(cc1)OCc1cn2nn1)C(C)C
